According to ChEMBL document CHEMBL5537208 (J Med Chem, 2024):
Values after ≈ are worked out from the molar mass of the structure shown.

Legend:
in vitro [1] = conditions: rat, liver microsomes
in vitro [2] = conditions: human, liver microsomes
Orexin receptor type 2 = target: T1, Orexin receptor type 2 (Homo sapiens, UniProt O43614)
T1 sequence (O43614 whole entry): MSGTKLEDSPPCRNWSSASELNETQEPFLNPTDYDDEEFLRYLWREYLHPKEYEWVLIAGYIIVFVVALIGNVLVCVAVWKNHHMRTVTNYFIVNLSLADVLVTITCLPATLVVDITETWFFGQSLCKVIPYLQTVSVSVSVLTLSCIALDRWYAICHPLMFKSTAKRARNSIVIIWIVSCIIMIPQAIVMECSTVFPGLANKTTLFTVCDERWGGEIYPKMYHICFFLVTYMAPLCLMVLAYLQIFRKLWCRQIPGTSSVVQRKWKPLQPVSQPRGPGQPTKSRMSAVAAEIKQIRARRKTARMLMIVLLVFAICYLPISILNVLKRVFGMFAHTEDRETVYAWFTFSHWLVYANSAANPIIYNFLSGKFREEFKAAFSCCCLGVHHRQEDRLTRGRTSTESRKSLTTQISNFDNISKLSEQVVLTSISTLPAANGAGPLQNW
Description: Antagonist activity at human OX2R expressed in CHO cells preincubated for 120 mins followed by orexin-A addition by FLIPR assay

[3] = target: T2, Orexin/Hypocretin receptor type 1 (Homo sapiens, UniProt O43613)
T2 sequence (O43613 whole entry): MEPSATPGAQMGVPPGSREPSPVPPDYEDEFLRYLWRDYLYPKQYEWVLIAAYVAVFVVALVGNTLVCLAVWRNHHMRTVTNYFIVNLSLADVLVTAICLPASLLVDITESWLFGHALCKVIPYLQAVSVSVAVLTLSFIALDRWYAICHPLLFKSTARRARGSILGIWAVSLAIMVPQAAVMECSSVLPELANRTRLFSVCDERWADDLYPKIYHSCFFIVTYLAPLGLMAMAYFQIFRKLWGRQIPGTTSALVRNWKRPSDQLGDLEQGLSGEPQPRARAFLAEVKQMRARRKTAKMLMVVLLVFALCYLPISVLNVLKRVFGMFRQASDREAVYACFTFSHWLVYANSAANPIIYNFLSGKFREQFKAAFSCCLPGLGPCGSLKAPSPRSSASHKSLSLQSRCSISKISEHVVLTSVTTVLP
Description: Antagonist activity at human OX1R expressed in CHO cells preincubated for 120 mins followed by orexin-A addition by FLIPR assay

Cytochrome P450 3A4 = Cytochrome P450 3A4 (Homo sapiens, UniProt P08684); experiment: Inhibition of CYP3A4 (unknown origin) using testosterone as substrate; format: ADME
Cytochrome P450 3A4, sequence (P08684 whole entry): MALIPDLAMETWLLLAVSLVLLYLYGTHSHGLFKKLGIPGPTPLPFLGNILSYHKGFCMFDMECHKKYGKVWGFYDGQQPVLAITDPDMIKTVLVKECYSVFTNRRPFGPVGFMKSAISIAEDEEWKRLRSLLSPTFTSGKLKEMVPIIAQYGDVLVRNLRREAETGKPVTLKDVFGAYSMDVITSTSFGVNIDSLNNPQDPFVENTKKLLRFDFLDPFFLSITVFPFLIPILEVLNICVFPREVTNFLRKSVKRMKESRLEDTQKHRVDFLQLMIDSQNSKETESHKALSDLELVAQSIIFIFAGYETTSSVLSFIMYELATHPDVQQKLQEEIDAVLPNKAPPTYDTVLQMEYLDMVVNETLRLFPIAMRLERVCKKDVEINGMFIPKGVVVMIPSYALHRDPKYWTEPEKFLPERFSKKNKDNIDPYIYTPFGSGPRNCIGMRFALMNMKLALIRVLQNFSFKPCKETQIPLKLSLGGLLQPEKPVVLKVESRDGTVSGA

in vitro [4] = conditions: dog, MDCK-MDR1
Description: Efflux ratio in MDCKI-MDR1 cells

[5] = Apparent permeability across basal to apical side in MDCKI-MDR1 cells; format: ADME, cell-based, Canis lupus familiaris; conditions: dog, MDCK-MDR1
[6] = Apparent permeability across apical to basal side in MDCKI-MDR1 cells; format: ADME, cell-based, Canis lupus familiaris; conditions: dog, MDCK-MDR1
[7] = Drug concentration in cerebrospinal fluid of Wistar rat at 1 mg/kg, po measured after 1 hr by LC-tandem MS analysis; format: ADME, organism-based; conditions: read-out: Ct
[8] = Solubility of compound in FeSSIF; format: ADME
[9] = Unbound drug concentration in Wistar rat brain at 1 mg/kg, po measured after 1 hr by LC-tandem MS analysis; format: ADME, organism-based; conditions: in vivo
[10] = Ratio of unbound drug concentration in Wistar rat brain to plasma at 1 mg/kg, po measured after 1 hr by LC-tandem MS analysis; format: ADME, organism-based; conditions: read-out: K(p,uu,brain)
[11] = Unbound drug concentration in Wistar rat plasma at 1 mg/kg, po measured after 1 hr by LC-tandem MS analysis; format: ADME, organism-based; conditions: in vivo
[12] = target: T3, Orexin/Hypocretin receptor type 1 (Rattus norvegicus) (UniProt P56718); conditions: Wistar, dose 1.0 mg/kg, route po, time 1.0 hrs
T3 sequence (whole entry): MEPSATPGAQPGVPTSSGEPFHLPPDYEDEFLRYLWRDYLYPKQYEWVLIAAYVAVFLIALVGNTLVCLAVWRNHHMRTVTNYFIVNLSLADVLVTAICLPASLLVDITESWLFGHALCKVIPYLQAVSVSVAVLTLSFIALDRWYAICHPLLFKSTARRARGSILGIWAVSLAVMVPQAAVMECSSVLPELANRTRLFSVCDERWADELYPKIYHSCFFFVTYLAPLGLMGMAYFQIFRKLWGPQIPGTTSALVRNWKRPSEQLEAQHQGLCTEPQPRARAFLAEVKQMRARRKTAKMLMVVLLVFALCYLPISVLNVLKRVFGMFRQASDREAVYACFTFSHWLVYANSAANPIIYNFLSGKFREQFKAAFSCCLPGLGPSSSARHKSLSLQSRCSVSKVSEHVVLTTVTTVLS

[13] = Drug concentration in Wistar rat Cerebrospinal fluid at 100 mg/kg, po measured after 1 hr by LC-tandem MS analysis; format: ADME, organism-based; conditions: read-out: Ct
[14] = In vivo receptor occupancy at OX2R in Wistar rat brain at 100 mg/kg, po measured after 1 hr relative to control; format: functional
[15] = In vivo receptor occupancy at OX2R in Wistar rat brain at 30 mg/kg, po measured after 1 hr relative to control; format: functional
[16] = Unbound drug concentration in Wistar rat brain at 100 mg/kg, po measured after 1 hr by LC-tandem MS analysis; format: ADME, organism-based; conditions: in vivo
[17] = Unbound drug concentration in Wistar rat brain at 30 mg/kg, po measured after 1 hr by LC-tandem MS analysis; format: ADME, organism-based; conditions: in vivo
[18] = Drug concentration in Wistar rat Cerebrospinal fluid at 30 mg/kg, po measured after 1 hr by LC-tandem MS analysis; format: ADME, organism-based; conditions: read-out: Ct

Row | microsomal CLint at 1 µM (in vitro [2]) | IC50 (Orexin receptor type 2) | IC50 [3] | Structure (SMILES) | other results
1 | 634 µL/min/mg | 1.7 nM |  | Cc1ccc(-n2nccn2)c(C(=O)N2CCCC[C@H]2Cc2cccc(-n3nccn3)c2)c1 | microsomal CLint at 1 µM (in vitro [1]): > 1250 µL/min/mg
2 | 327 µL/min/mg |  |  | Cc1ccc(C(=O)N2CCO[C@@H](C)[C@H]2Cc2cccc(-n3nccn3)c2)c(-n2nccn2)c1 | 
3 |  |  | 4.4 nM | O=C(c1ccccc1-c1ncccn1)N1CCC[C@H]1Cc1cccc(-n2nccn2)c1 | 
4 | 170 µL/min/mg | 2020 nM | 21 nM | Cc1ccc(C(=O)N2CCOC[C@H]2Cc2cccc(-n3nccn3)c2F)c(-n2nccn2)c1 | 
5 |  | 12 nM | 3.6 nM | Cc1nc(C(=O)N2CCC[C@H]2Cc2cccc(-n3nccn3)c2)c(-c2ccc3c(c2)OCO3)s1 | 
6 | 322 µL/min/mg | 265 nM | 11 nM | Cc1ccc(C(=O)N2C[C@H](C)OC[C@H]2Cc2cccc(-n3nccn3)c2)c(-n2nccn2)c1 | 
7 |  | 666 nM |  | Cc1ccc(-n2nccn2)c(C(=O)N2CCNC[C@H]2Cc2cccc(-n3nccn3)c2)c1 | IC50 (Cytochrome P450 3A4): 25000 nM
8 |  | 20 nM |  | Cc1cccc(-c2sc(C)nc2C(=O)N2CCC[C@H]2Cc2cccc(-n3cccn3)c2)c1 | 
9 |  | 1550 nM |  | O=C(c1c(F)cccc1-n1nccn1)N1CCOC[C@H]1Cc1cccc(-n2nccn2)c1 | 
10 | 101 µL/min/mg | 1040 nM | 37 nM | O=C(c1ccc(F)cc1-n1nccn1)N1CCOC[C@H]1Cc1cccc(-n2nccn2)c1 | 
11 | 157 µL/min/mg | 1430 nM | 6.2 nM | COc1ccc(C(=O)N2CCOC[C@H]2Cc2cccc(-n3nccn3)c2)c(-n2nccn2)c1 | efflux ratio (in vitro [4]): 7.2; microsomal CLint at 1 µM (in vitro [1]): > 1250 µL/min/mg; Papp B→A [5]: 62.4 ×10⁻⁶ cm/s; Papp A→B [6]: 8.7 ×10⁻⁶ cm/s
12 |  |  | 9.5 nM | Cc1cccc(-c2ncncc2C(=O)N2CCC[C@H]2Cc2cccc(-n3nccn3)c2)c1 | 
13 | 59 µL/min/mg |  |  | O=C(c1ccccc1-n1nccn1)N1CCOC[C@H]1Cc1cccc(-n2nccn2)c1 | 
14 | 89 µL/min/mg |  | 1.9 nM | Cc1ccc(C(=O)N2CCOC[C@H]2Cc2cc(Cl)cc(-n3nccn3)c2)c(-n2nccn2)c1 | 
15 |  |  | 5.9 nM | O=C(c1ccccc1-n1nccn1)N1CCC[C@H]1Cc1cccc(-n2nccn2)c1 | 
16 | 121 µL/min/mg | 784 nM | 3 nM | COc1ccc(-n2nccn2)c(C(=O)N2CCOC[C@H]2Cc2cccc(-n3nccn3)c2)c1 | efflux ratio (in vitro [4]): 10; microsomal CLint at 1 µM (in vitro [1]): > 1250 µL/min/mg; Papp B→A [5]: 60.6 ×10⁻⁶ cm/s; Papp A→B [6]: 6.1 ×10⁻⁶ cm/s
17 | 204 µL/min/mg |  | 5.5 nM | Cc1cccc(C(=O)N2CCOC[C@H]2Cc2cccc(-n3nccn3)c2)c1-n1nccn1 | concentration at 1 h [7]: 1000 nM; solubility [8]: 337 µg/mL (≈ 785 µM); Drug uptake(free) [9]: 260 nM; microsomal CLint at 1 µM (in vitro [1]): > 1250 µL/min/mg; Kp uu at 1 h [10]: 0.94; Papp B→A [5]: 66 ×10⁻⁶ cm/s; Papp A→B [6]: 16.1 ×10⁻⁶ cm/s; Cp(f) [11]: 278 nM

Row | microsomal CLint at 1 µM (in vitro [2]) | IC50 (Orexin receptor type 2) | IC50 [3] | Structure (SMILES) | other results
18 | 119 µL/min/mg | 214 nM | 1.7 nM | Cc1ccc(-n2nccn2)c(C(=O)N2CCOC[C@H]2Cc2cccc(-n3nccn3)c2)c1 | Occ [12]: > 91%; concentration at 1 h [7]: 51 nM; solubility [8]: 46 µg/mL (≈ 107 µM); Drug uptake(free) [9]: 19 nM; microsomal CLint at 1 µM (in vitro [1]): > 1250 µL/min/mg; Kp uu at 1 h [10]: 0.53; Papp B→A [5]: 55.9 ×10⁻⁶ cm/s; Papp A→B [6]: 15.3 ×10⁻⁶ cm/s; Cp(f) [11]: 36 nM
19 | 292 µL/min/mg | 2430 nM | 2.8 nM | Cc1ccc(C(=O)N2CCOC[C@H]2Cc2cccc(-n3nccn3)c2)c(-n2nccn2)c1C | efflux ratio (in vitro [4]): 5; Occ [12]: > 98%; concentration at 1 h [7]: 370 nM; solubility [8]: 293 µg/mL (≈ 661 µM); Drug uptake(free) [9]: 147 nM; microsomal CLint at 1 µM (in vitro [1]): > 1250 µL/min/mg; Kp uu at 1 h [10]: 2.04; Papp B→A [5]: 59.4 ×10⁻⁶ cm/s; Papp A→B [6]: 11.8 ×10⁻⁶ cm/s; Cp(f) [11]: 72 nM
20 | 391 µL/min/mg | 184 nM | 1.4 nM | Cc1ccc(C(=O)N2CCOC[C@H]2Cc2ccc(C)c(-n3nccn3)c2)c(-n2nccn2)c1 | 
21 |  | 4.4 nM |  | Cc1cccc(-c2sc(C)nc2C(=O)N2CCC[C@H]2Cc2cccc(-c3ncon3)c2)c1 | 
22 | 301 µL/min/mg |  |  | Cc1ccc(C(=O)N2CCO[C@H](C)[C@H]2Cc2cccc(-n3nccn3)c2)c(-n2nccn2)c1 | 
23 | 158 µL/min/mg | 595 nM | 3.1 nM | Cc1ccc(C(=O)N2CCOC[C@H]2Cc2cc(-n3nccn3)ccc2Cl)c(-n2nccn2)c1 | 
24 | 227 µL/min/mg |  |  | O=C(c1cc(F)ccc1-n1nccn1)N1CCOC[C@H]1Cc1cccc(-n2nccn2)c1 | 
25 |  |  | 109 nM | Cc1cccc(-n2nccn2)c1C(=O)N1CCOC[C@H]1Cc1cccc(-n2nccn2)c1 | 
26 | 99 µL/min/mg |  |  | Cc1ccc(C(=O)N2CCOC[C@H]2Cc2cc(-n3nccn3)ccc2F)c(-n2nccn2)c1 | concentration at 1 h [13]: 550 nM; Occ [14]: 82%; Occ [15]: 13%; Drug uptake(free) [16]: 307 nM; concentration at 1 h [7]: 550 nM; Drug uptake(free) [17]: 10 nM; Drug uptake(free) [9]: 307 nM; concentration at 1 h [18]: 45 nM; Kp uu at 1 h [10]: 1.73; Cp(f) [11]: 177 nM
27 | 623 µL/min/mg |  | 1 nM | Cc1ccc(C(=O)N2[C@H](Cc3cccc(-n4nccn4)c3)COC[C@H]2C)c(-n2nccn2)c1 | 
28 |  | 100 nM | 17 nM | Cc1nc(C(=O)N2CCC[C@H]2Cc2cccc(-n3nccn3)c2)c(-c2ccc(F)cc2)s1 | 
29 | 139 µL/min/mg | 215 nM | 4 nM | Cc1ccc(C(=O)N2C[C@@H](C)OC[C@H]2Cc2cccc(-n3nccn3)c2)c(-n2nccn2)c1 | 
30 | 104 µL/min/mg |  |  | O=C(c1cccc(F)c1-n1nccn1)N1CCOC[C@H]1Cc1cccc(-n2nccn2)c1 | 
31 | 208 µL/min/mg | 1110 nM | 4.1 nM | Cc1ccc(C(=O)N2CCOC[C@H]2Cc2cc(-n3nccn3)ccc2C)c(-n2nccn2)c1 | 
32 | 164 µL/min/mg |  | 3.5 nM | Cc1ccc(C(=O)N2CCOC[C@H]2Cc2cc(F)cc(-n3nccn3)c2)c(-n2nccn2)c1 | 
33 | 239 µL/min/mg | 1830 nM | 34 nM | Cc1ccc(C(=O)N2[C@H](Cc3cccc(-n4nccn4)c3)COC[C@@H]2C)c(-n2nccn2)c1 | 
34 | > 1250 µL/min/mg | 7 nM | 0.7 nM | Cc1ccc(-n2nccn2)c(C(=O)N2CCC[C@H]2Cc2cccc(-n3nccn3)c2)c1 | microsomal CLint at 1 µM (in vitro [1]): > 1250 µL/min/mg
